Experimental data reported in US9255272B2, “Use of inhibitors of leukotriene B4 receptor BLT2 for treating asthma” (Korea University Research & Business Foundation, priority 2007, dated 2016).

Experiments:
Format in all cases: in vivo, mouse
OVA-challenged mice = assay: AHR (Penh) in response to methacholine in OVA-challenged mice; conditions: for reduction of Penh (based on area-under-the-curve calculations): methacholine 6.25-50 mg/ml, 24 h after last OVA challenge
Experimental: Female BALB/c mice and C57BL/6 mice (7 weeks old; 18-20 g) were obtained from Orientbion Inc. (Seoungnam, Korea). Sensitization and challenge were carried out as described previously with some modification (28). Briefly, female C57BL/6 mice (7 weeks old; 18-20 g) were immunized by intraperitoneal (i.p.) injection of 200 μg ovalbumin (OVA) emulsified in 2.5 mg of adjuvant aluminum hydroperoxide gel (alum) (Pierce, Rockford, Ill.). A second i.p. injection of 20 μg OVA adsorbed onto alum (2.5 mg) was administered 10 days later. After an additional 10 days, mice were exposed to an aerosol of 1% OVA in saline for 30 min daily on 3 consecutive days. On day 25, mice were finally challenged by provocation with 10% OVA aerosol. For inhibition experiments, sense or antisense BLT2 (1.6 mg/kg) was injected intravenously 24 h and then 1 h before the 10% OVA challenge. The mice were then killed on day 27 to assess asthmatic phenotypes. Antisense BLT2 oligonucleotide (5′-[…]-3′ (SEQ ID NO: 15)), sense BLT2 oligonucleotide (5′-[…]-3′ (SEQ ID NO: 16)). […]
Airway AHR was measured in unrestrained, conscious mice 24 h after the final OVA challenge using a whole-body plethysmograph, as previously described (29). Mice were placed in a barometric plethysmographic chamber (All Medicus Co., Seoul, Korea), and baseline readings were taken and averaged for 3 min. […] Readings were taken and averaged for 3 min after each nebulization, and enhanced pause (Penh) was determined. Signals were analyzed to derive whole body flow parameters including respiratory rate, tidal volume, inspiratory time (Ti), expiratory time (Te)1. peak inspiratory flow (PIF), peak expiratory flow (PEF), and relaxation time (RT). […] Baseline Penh measurements for each animal were recorded for 3 min and averaged. Results are expressed as the percentage increase of Penh following challenge with each concentration of methacholine, where the baseline Penh (after saline challenge) is expressed as 100%. Penh values averaged for 3 min after each nebulization were evaluated. […]

NF-κB = NF-κB binding activity in lung nuclear extracts (EMSA)
Experimental: (§1) Female BALB/c mice and C57BL/6 mice (7 weeks old; 18-20 g) were obtained from Orientbion Inc. (Seoungnam, Korea). Sensitization and challenge were carried out as described previously with some modification (28). Briefly, female C57BL/6 mice (7 weeks old; 18-20 g) were immunized by intraperitoneal (i.p.) injection of 200 μg ovalbumin (OVA) emulsified in 2.5 mg of adjuvant aluminum hydroperoxide gel (alum) (Pierce, Rockford, Ill.). A second i.p. injection of 20 μg OVA adsorbed onto alum (2.5 mg) was administered 10 days later. After an additional 10 days, mice were exposed to an aerosol of 1% OVA in saline for 30 min daily on 3 consecutive days. On day 25, mice were finally challenged by provocation with 10% OVA aerosol. For inhibition experiments, sense or antisense BLT2 (1.6 mg/kg) was injected intravenously 24 h and then 1 h before the 10% OVA challenge. The mice were then killed on day 27 to assess asthmatic phenotypes. Antisense BLT2 oligonucleotide (5′-[…]-3′ (SEQ ID NO: 15)), sense BLT2 oligonucleotide (5′-[…]-3′ (SEQ ID NO: 16)).
A double-strand oligonucleotide corresponding to the consensus NF-κB binding motif and a mutant sequence were purchased from Santa Cruz Biotechnology Inc. (Santa Cruz, Calif.) and labeled with γ-32P-ATP using T4 polynucleotide kinase (Roche, Germany). […]

IκB-α = IκB-α level in lung tissue (Western blot); conditions: lung tissue extracts
Experimental: as §1
Alternatively, BALB/c mice were sensitized on day 1 by i.p. injection of 20 μg OVA emulsified in 2.5 mg of alum (Pierce, Rockford, Ill.), followed by an identical booster injection administered on day 14. On days 21, 22 and 23 after initial sensitization, the mice were challenged for 30 min with an aerosol of 1% OVA using an ultrasonic nebulizer. […]

For “antisense Rac: phosphorothioate 17-mer to the 5′ end of murine Rac mRNA, 5′-CACTTGATGGCCTGCAT-3′ (SEQ ID NO: 22) (listed as DNA, chemistry not fully specified)”, the “AHR after allergen challenge” value (OVA-challenged mice; mouse model system for asthma, antisense oligomers to Rac1) was “remarkably reduced” and the “NF-κB binding activity elicited by OVA challenge” value (NF-κB; antisense Rac 1.25 mg/kg, tail vein) was “attenuated”.
In the case of `CCc1cc(C(C)=O)c(O)cc1OCCCCCC(C)(C)c1nnn[nH]1` [LY255283, 1-[5-ethyl-2-hydroxy-4-[[6-methyl-6-(1H-tetrazol-5-yl)heptyl]oxy]phenyl]-ethanone, reference compound], the “reduction of IκB-α degradation following OVA challenge” value (IκB-α; LY255283 2.5 mg/kg 1 hr before 1% OVA challenge) is reported as −50% and the “reduction of Penh (based on area-under-the-curve calculations)” value (OVA-challenged mice; LY255283 2.5 mg/kg i.v.) is reported as −70%.
With “antisense BLT2: Antisense BLT2 oligonucleotide 5′-GCTCAGTAGTGTCTCATTCC-3′ (SEQ ID NO: 15) (listed as DNA, chemistry not fully specified)” the “reduction of IκB-α degradation following OVA challenge” value (IκB-α; antisense BLT2 1.6 mg/kg) was −50%, the “reduction of Penh (based on area-under-the-curve calculations)” value (OVA-challenged mice; antisense BLT2 1.6 mg/kg i.v.) was −70% and the “NF-κB binding activity elicited by OVA challenge” value (NF-κB; antisense BLT2 1.6 mg/kg i.v. 24 hr and 1 hr before provocation) was “attenuated”.
